The test system of the assay is release of IL-1β. Description: Inhibition of LPS-induced IL-1β release from isolated human mononuclear cells (enzyme immunoassay). The conditions noted are these: human mononuclear cells from citrate blood, lipopolysaccharide (Salmonella abortus equi) induced, 37° C. for 20 hours, IL-1β in supernatant; seven concentrations. In kind it is cell-based. The protocol:
The mononuclear cells were concentrated from freshly obtained human citrate blood by known standard processes. See, e.g., Tiku et al., J. Immunol. 136/10 (1986) 3677.
15 ml of Lymphoprep® (Molter GmbH, Heidelberg, FRG) was carefully introduced under a layer of 10 ml of freshly prepared human citrate blood and the mixture was then centrifuged at 400×g (Minifuge®, Heraeus, Hanau, FRG) at 20° C. for 40 minutes. The cell fraction, showing as a white ring in the phase boundary, was withdrawn with the aid of a syringe, diluted 1:1 (v/v) with PM-16 buffer (Serva, Heidelberg, FRG) and centrifuged again as above for 10 minutes. The […] was taken up in 10 ml of RPMI 1640 buffer (Gibco, Berlin, FRG), to which 300 mg/I of L-glutamine, 25 mmol/l of HEPES, […] of penicillin had been added beforehand. The cell suspension, comprising about 90% lymphocytes and 10% monocytes, was adjusted to about 5 million cells/ml with the aid of a cell counter (type IT, Coulter Diagnostics, Krefeld, FRG). The cell viability was checked with the aid of the known lactate dehydrogenase method before and after the inhibition experiments. No change in the viability was found here.
The synthesis and release of cellular IL-1β was induced by adding a solution of […] of lipopolysaccharide (Salmonella abortus equi, Sigma GmbH, Deisenhofen, FRG) in 0.01 ml of dimethyl sulfoxide/water (1:10, v/v) to 0.48 ml of the cell fraction described above. At the same time, a solution of the test substance in 0.01 ml was added to the cell fraction, and the mixture was left in a commercially available incubator at 37° C. for 20 hours. After the sample had been cooled to 0° C., it was centrifuged in a bench centrifuge for 1 minute and in each case 0.025 ml aliquots of the supernatant were investigated specifically for their IL-1β content with the aid of a commercially available “sandwich” enzyme immunoassay kit (Biosource, Ratingen, FRG), in accordance with the manufacturer's instructions. The control values, without addition of the test preparation, were determined and set at 100%. In particular, any influence of dimethyl sulfoxide on the IL-1β level was excluded by corresponding comparison measurements.
The concentration range was chosen here such that it comprised the ranges from 0% inhibition (that is to say without addition of the test substance) to at least 80% inhibition. The test substance concentration which led to 50% inhibition of the release of IL-1β was determined by extrapolation from the dose-effect relationship determined by graph or mathematically.
IC50 value has been shown in Table 2 as micromoles/liter for the corresponding compounds of the formula (I) according to the invention.

`O=C(O)CCNS(=O)(=O)c1nc(-c2ccccc2)ns1` [Example 21]: the midpoint of inhibition, the IC50, lay at 6 µM.

The molecule `O=S(=O)(NCc1ccccc1)c1nc(-c2ccccc2)ns1` [Example 4] displayed an IC50 of 15 µM.

As to `CC(=O)N1CCN(S(=O)(=O)c2nc(-c3ccccc3)ns2)CC1` [Example 15], the 50% inhibitory concentration (IC50) amounted to 2 µM.

In turn, `COc1ccc(-c2nsc(S(=O)(=O)N3CCN(C)CC3)n2)cc1Cl` [Example 24] showed an IC50 of 20 µM.

Molecule `O=S(=O)(c1nc(-c2ccccc2)ns1)N1CCOCC1` [Example 2] yielded an IC50 of 3 µM.

Molecule `C[C@H](NS(=O)(=O)c1nc(-c2ccccc2)ns1)C(=O)O` [Example 16, (S)-2-(3-Phenyl-(1,2,4)-thiadiazole-5-sulfonylamino)propionic acid] had an IC50 of 10 µM.

Consider `CCOC(=O)C1CCN(S(=O)(=O)c2nc(-c3ccccc3)ns2)CC1` [Example 12], for which inhibition was half-maximal at 2 µM (IC50).

With `O=S(=O)(Nc1ccc(Cl)cc1)c1nc(-c2ccccc2)ns1` [Example 3], the IC50 is 34 µM.

In turn, `CN1CCN(S(=O)(=O)c2nc(-c3ccccc3)ns2)CC1` [Example 8] yielded an IC50 of 4 µM.

Turning to `O=C1CCN(S(=O)(=O)c2nc(-c3ccccc3)ns2)CC1` [Example 13], 2 µM corresponded to half-maximal inhibition (IC50).

For the molecule `O=C(O)CNS(=O)(=O)c1nc(-c2ccccc2)ns1` [Example 19], the midpoint of inhibition, the IC50, lay at 40 µM.

Take `O=S(=O)(c1nc(-c2ccccc2)ns1)N1CCN(c2ccc(Cl)cc2)CC1` [Example 10]: the IC50 turned out to be 10 µM.

In turn, `COC(=O)[C@H](C)NS(=O)(=O)c1nc(-c2ccccc2)ns1` [Example 7] came in with an IC50 of 2 µM.

With `C[C@H](NS(=O)(=O)c1nc(-c2ccccc2)ns1)C(=O)OCc1ccccc1` [Example 17], the midpoint of inhibition, the IC50, lay at 10 µM.

As for `O=C(O)[C@@H]1CCCN1S(=O)(=O)c1nc(-c2ccccc2)ns1` [Example 18], it took 8 µM to reach half-maximal inhibition (IC50).

`O=C(O)[C@H](Cc1ccccc1)NS(=O)(=O)c1nc(-c2ccccc2)ns1` [Example 22] had an IC50 of 20 µM.

`CN1CCN(S(=O)(=O)c2nc(-c3ccc(Cl)cc3)ns2)CC1` [Example 25]: the IC50 was 2 µM.

`CN(c1ccccc1)S(=O)(=O)c1nc(-c2ccccc2)ns1` [Example 1] returned a concentration for half-maximal inhibition (IC50) of 11 µM.

Regarding `O=C(O)C1CCN(S(=O)(=O)c2nc(-c3ccccc3)ns2)CC1` [Example 14], the IC50 turned out to be 2 µM.

The molecule `O=S(=O)(NC1CCCCC1)c1nc(-c2ccccc2)ns1` [Example 5] showed an IC50 of 6 µM.

As to `O=C(O)C1CCC(CNS(=O)(=O)c2nc(-c3ccccc3)ns2)CC1` (centres unmarked) [Example 9], the IC50 is 2 µM.

Molecule `CC(C)OC(=O)[C@H](C)NS(=O)(=O)c1nc(-c2ccccc2)ns1` [Example 23] yielded an IC50 of 6 µM.

For the molecule `O=C(c1ccc(F)cc1)C1CCN(S(=O)(=O)c2nc(-c3ccccc3)ns2)CC1` [Example 20], it took 12 µM to reach half-maximal inhibition (IC50).

The IC50 is the point on the concentration scale where inhibition reaches its midpoint. A low value points to higher potency.

Source of the values: US6503934B2, “Substituted thiadiazolesulfonamides” (Aventis Pharma Deutschland GmbH, priority 1998, dated 2003).
